Results on 16 molecules are retold here after publication PMC8704944, “From Far West to East: Joining the Molecular Architecture of Imidazole-like Ligands in HO-1 Complexes” (Pharmaceuticals, 2021).

A word on the melting point: it is the temperature, or range, at which the solid turns liquid. Usually IC50 stands for the concentration that gives 50% inhibition.

Molecules are shown by their SMILES. Several values for one entry are separate records, joined by “and”; a condition that tells them apart may be missing. Equal entries are not always repeated. Structures can show the parent of a compound that is named as a salt.

Test system in the first data set: not given
Assay: not given
Settings: not given
For the molecule `Cc1ccc2c(c1)cc(C(=O)NCCCn1ccnc1)n2C` (as salt: hydrochloride) [Compound 4a, N-(3-(1H-Imidazol-1-yl)propyl)-1,5-dimethyl-1H-indole-2-carboxamide], the melting point was in the range of 102 to 103 °C.
In turn, `COc1ccc2c(c1)cc(C(=O)NCCCn1ccnc1)n2C` (as salt: hydrochloride) [Compound 4b, N-(3-(1H-Imidazol-1-yl)propyl)-5-methoxy-1-methyl-1H-indole-2-carboxamide] returned a melting point of 121 to 122 °C.
As to `COc1cc2cc(C(=O)NCCCn3ccnc3)n(C)c2cc1OC` (as salt: hydrochloride) [Compound 4c, N-(3-(1H-Imidazol-1-yl)propyl)-5,6-dimethoxy-1-methyl-1H-indole-2-carboxamide], the melting point lay in the range of 146 to 147 °C.
The same measure, in the same setting: then `Cn1c(C(=O)NCCCn2ccnc2)cc2cc(OCc3ccccc3)ccc21` (as salt: hydrochloride) [Compound 4d, N-(3-(1H-Imidazol-1-yl)propyl)-5-(benzyloxy)-1-methyl-1H-indole-2-carboxamide], with 174 to 175 °C; and `Cc1ccc2c(c1)cc(C(=O)NCCCn1ccnc1)n2Cc1ccccc1` (as salt: hydrochloride) [Compound 8a, N-(3-(1H-Imidazol-1-yl)propyl)-1-benzyl-5-methyl-1H-indole-2-carboxamide], with 178 to 179 °C; and `COc1ccc2c(c1)cc(C(=O)NCCCn1ccnc1)n2Cc1ccccc1` (as salt: hydrochloride) [Compound 8b, N-(3-(1H-Imidazol-1-yl)propyl)-1-benzyl-5-methoxy-1H-indole-2-carboxamide], with 151 to 152 °C.
The same measure, in the same setting: for `COc1cc2cc(C(=O)NCCCn3ccnc3)n(Cc3ccccc3)c2cc1OC` (as salt: hydrochloride) [Compound 8c, N-(3-(1H-Imidazol-1-yl)propyl)-1-benzyl-5,6-dimethoxy-1H-indole-2-carboxamide] the value was 110 to 111 °C; for `O=C(NCCCn1ccnc1)c1cc2cc(OCc3ccccc3)ccc2[nH]1` [Compound 1, N-(3-(1H-Imidazol-1-yl)propyl)-5-(benzyloxy)-1H-indole-2-carboxamide], 204 to 206 °C.

Another data set concerns the target T1, HO-1 (Rattus norvegicus, UniProt P06762).
T1 construct: Rat spleen microsomal fractions were chosen to isolate HO-1 in its most native form; from tissue; host or cells: rat spleen (male Sprague-Dawley), 100,000 g microsomal pellet
T1 sequence (P06762 1-289): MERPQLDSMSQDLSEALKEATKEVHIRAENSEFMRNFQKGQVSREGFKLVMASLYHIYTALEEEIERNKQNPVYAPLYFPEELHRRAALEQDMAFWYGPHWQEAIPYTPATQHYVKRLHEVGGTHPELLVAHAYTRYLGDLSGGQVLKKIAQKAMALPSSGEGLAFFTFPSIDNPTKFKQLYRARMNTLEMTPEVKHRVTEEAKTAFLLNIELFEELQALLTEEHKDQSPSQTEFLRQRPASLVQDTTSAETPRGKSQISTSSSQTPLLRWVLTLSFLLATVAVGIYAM
In words: HO-1 enzymatic activity in the microsomal fraction of rat spleen (bilirubin formation). The settings on record: rat spleen microsomal fraction; mean ± SD of triplicate experiments. The data set is classed as biochemical. The procedure:
The inhibitory potency of the novel compounds was evaluated reproducing in vitro the HO-1 catalytic cycle. Rat spleen microsomal fractions were chosen to isolate HO-1 in its most native form; indeed, it is well known that in basal conditions, HO-1 is highly expressed in spleen tissues. […] Among the three catabolites, bilirubin concentrations can easily be monitored spectrophotometrically; the lowest is the absorbance detected with the assay, and the highest is the potency of the putative inhibitor. Results obtained from the in vitro enzymatic assay are reported in Table 1, using Azalanstat as the reference compound.
Rat spleen microsomal fraction obtained by differential centrifugation, according to Ryter et al., was used as source of the HO-1 protein. As reported in the literature, HO-1 is abundant in the rat spleen. We chose this source because it represents the most native (i.e., closest to in vivo) form of HO-1. The experiments reported in the present paper complied with current Italian law and met the guidelines of the Institutional Animal Care and Use Committee of the Ministry of Health (Directorate-General for Animal Health and Veterinary Medicines, Italy) “Dosing of enzymatic activities in rat microsomes” (2018–2022), project code 02769.N.VLY. We used male albino rats of strain Sprague–Dawley (150 g body weight and age 45 d) to obtain spleen microsomal fraction. Rats had free access to water and were kept at room temperature with a natural photoperiod (12 h light–12 h dark cycle). Each rat was sacrificed, and their spleens were pooled and then homogenized in 50 mM Tris buffer, pH 7.4, containing 0.25 M sucrose, using a Potter–Elvehjem homogenizing system with a Teflon pestle. Rat spleen homogenate was centrifuged at 10,000× g for 20 min at 4 °C, and the supernatant was centrifuged at 100,000× g for 60 min at 4 °C. The 100,000 g pellet (microsomes) was resuspended in 100 mM potassium phosphate buffer, pH 7.8, containing MgCl2 2 mM. After measuring its protein concentration, the microsomal fraction was aliquoted and stored at −80 °C for up to 2 months.
Liver tissue was used to obtain biliverdin reductase. Liver tissue was homogenized on ice in 3 volumes of a solution 1.15% KCl w/v and Tris buffer 20 mM, pH 7.8. Rat liver homogenate was centrifuged at 10,000× g for 20 min at 4 °C, and the supernatant was centrifuged at 100,000× g for 1 h at 4 °C. The 100,000 g supernatant was aliquoted and stored at −80 °C after its protein concentration was measured.
Determination of HO-1 activity has been performed by measuring the bilirubin formation using the difference in absorbance at 464–530 nm as described by Ryter et al.. The incubation mixture contained the following in a final volume of 500 µL: 20 mM Tris–HCl, pH 7.4, (1 mg/mL) microsomal extract, 0.5–2 mg/mL biliverdin reductase, 1 mM NADPH, 2 mM glucose 6-phosphate (G6P), 1 U G6P dehydrogenase, 25 µM hemin, and 10 µL of DMSO (or the same volume of DMSO solution of test compounds to a final concentration of 100, 10, and 1 µM). Enzymatic reactions were carried out in the dark for 1 h at 37 °C in a circulating water bath. Then, 500 µL of chloroform was used to stop the reaction. The amount of bilirubin formed was measured in the chloroform phase, with a double-beam spectrophotometer as OD464–530 nm (extinction coefficient, 40 mM/cm for bilirubin). The enzymatic activity was defined as Units (one Unit is the amount of enzyme catalyzing the formation of 1 nmol of bilirubin/mg protein/h).
Molecule `O=C(NCCCn1ccnc1)c1cc2cc(OCc3ccccc3)ccc2[nH]1` [Compound 1, N-(3-(1H-Imidazol-1-yl)propyl)-5-(benzyloxy)-1H-indole-2-carboxamide] had an IC50 of 89.6 ± 6.1 µM.
On the same count and under the same terms, for `Cc1ccc2c(c1)cc(C(=O)NCCCn1ccnc1)n2C` [Compound 4a, N-(3-(1H-Imidazol-1-yl)propyl)-1,5-dimethyl-1H-indole-2-carboxamide] the value was 367 ± 34.5 µM; for `COc1ccc2c(c1)cc(C(=O)NCCCn1ccnc1)n2C` [Compound 4b, N-(3-(1H-Imidazol-1-yl)propyl)-5-methoxy-1-methyl-1H-indole-2-carboxamide], > 100 µM and 113 µM.
On the same count and under the same terms, then `COc1cc2cc(C(=O)NCCCn3ccnc3)n(C)c2cc1OC` [Compound 4c, N-(3-(1H-Imidazol-1-yl)propyl)-5,6-dimethoxy-1-methyl-1H-indole-2-carboxamide], with 55.5 ± 3.82 µM.
As for `Cn1c(C(=O)NCCCn2ccnc2)cc2cc(OCc3ccccc3)ccc21` [Compound 4d, N-(3-(1H-Imidazol-1-yl)propyl)-5-(benzyloxy)-1-methyl-1H-indole-2-carboxamide], the “HO-1 IC50” value is listed as “low micromolar range” and the 50% inhibitory concentration (IC50) came out at 1.03 ± 0.13 µM.
For the molecule `Cc1ccc2c(c1)cc(C(=O)NCCCn1ccnc1)n2Cc1ccccc1` [Compound 8a, N-(3-(1H-Imidazol-1-yl)propyl)-1-benzyl-5-methyl-1H-indole-2-carboxamide], the IC50 came to 2060 ± 412 µM.
Same read-out and setting: for `COc1ccc2c(c1)cc(C(=O)NCCCn1ccnc1)n2Cc1ccccc1` [Compound 8b, N-(3-(1H-Imidazol-1-yl)propyl)-1-benzyl-5-methoxy-1H-indole-2-carboxamide] the value was > 100 µM and 349 µM.
Same read-out and setting: then `COc1cc2cc(C(=O)NCCCn3ccnc3)n(Cc3ccccc3)c2cc1OC` [Compound 8c, N-(3-(1H-Imidazol-1-yl)propyl)-1-benzyl-5,6-dimethoxy-1H-indole-2-carboxamide], with 81 ± 4.65 µM.

The data set is the same for the next values; noted with them: versus compound 1.
With `Cn1c(C(=O)NCCCn2ccnc2)cc2cc(OCc3ccccc3)ccc21` [Compound 4d, N-(3-(1H-Imidazol-1-yl)propyl)-5-(benzyloxy)-1-methyl-1H-indole-2-carboxamide], the “fold more potent than parent compound 1 (HO-1 IC50)” value worked out at 87 fold.

The subject of the next data set is HO-2.
Assay: not given
The settings on record: representative inhibitor, printed in picture of Figure 1; cited from earlier work.
For the molecule `FC(F)(F)c1ccc(SC[C@@H]2CO[C@@](CCc3ccc(Cl)cc3)(Cn3ccnc3)O2)nc1` [QC-80], the IC50 was 16 µM.

The next data set relates to HO-1.
Assay: not given
As to conditions: representative inhibitor, printed in picture of Figure 1; cited from earlier work.
Take `FC(F)(F)c1ccc(SC[C@@H]2CO[C@@](CCc3ccc(Cl)cc3)(Cn3ccnc3)O2)nc1` [QC-80]: the IC50 was 2100 nM.
